Results on four compounds are retold here after patent publication US10046046B2, “Amino sphingoglycolipid analogues” (Victoria Link Limited, priority 2014, dated 2018).

“Also recorded” adds a separate entry of the source. Square brackets hold non-standard residues; d marks the D form. Peptide text beside a SMILES is read from it. * marks the point of attachment. ξ: configuration not given here. X1 = CCCCCCCCCCCCCCCCCCCCCCCCCC(=O)N[C@@H](CO[C@H]1OC(CNC(=O)OCOC(=O)CC/C(C)=N/OCC(=O)*)[C@H](O)[C@H](O)C1O)[C@H](O)[C@H](O)CCCCCCCCCCCCCC; ξF = NC(Cc1ccccc1)C(=O)O

The subject of data set [1] is B16.OVA melanoma cells. Kind of data set: Anti-tumour activity against subcutaneous B16.OVA tumours. As to conditions: 0.571 nmol intravenously five days after tumour challenge, n=5, FIG. 5. The class given is in vivo, C57BL/6 mice. On the procedure:
Progression of subcutaneous B16.OVA tumours is monitored in animals treated five days after tumour challenge with intravenous CI-017 or CN159 peptide and α-GalCer or with PBS. The mean tumour sizes per group (n=5)±SEM are shown.
Groups of C57BL/6 mice (n=5) receive a subcutaneous injection into the flank of 1×10^5 B16.OVA melanoma cells, which express a cDNA encoding the chicken ovalbumin (OVA) sequence. The different groups are treated five days later by intravenous injection of one of the following; CI-017 (0.571 nmol), peptide CN159 (0.571 nmol) mixed with α-GalCer (0.571 nmol), or PBS. Mice are monitored for tumour growth every 3-4 days, and tumour size for each group calculated as the mean of the products of bisecting diameters (±SEM). Measurements are terminated for each group when the first animal develops a tumour exceeding 200 mm^2.

For data set [2], the system named is syngeneic splenocytes loaded ex vivo with SIINFEKL
The data set is described as follows: Peptide-specific T cell-mediated cytotoxicity in vivo (VITAL assay). Also noted: species or system mice. As to conditions: 0.571 nmol intravenously, targets injected 7 days after vaccination, 5 animals per group, FIG. 4. On the procedure:
The compounds are injected to give the equivalent molar dose of SIINFEKL (SEQ ID NO: 262) peptide, in each case of 0.571 nmol. Flow cytometry is used to assess the killing of target cells comprised of syngeneic splenocytes loaded ex vivo with 5 μM SIINFEKL (SEQ ID NO: 262) injected intravenously 7 days after vaccination. To discriminate the targets from host tissue, the injected cells are labelled with the fluorescent dye carboxyfluorescein succinimidyl ester (CFSE). A cohort syngeneic splenocytes (without peptide) labelled with the fluorescent dye cell tracker orange are also injected to serve as controls. Killing is defined as the percentage of peptide-loaded targets killed relative to control cells. Each treatment group contained 5 animals. Control animals are injected with the diluent phosphate-buffered saline (PBS). […] Mean percentage of killing per group±SEM are shown. ***p<0.001
The cytotoxic capacity of induced CD8^+ T cell responses is measured by VITAL assay (Hermans, Silk et al. 2004). […] Specific lysis of the peptide-loaded targets is monitored by flow cytometry of blood or spleen samples 24 h later. Mean percent survival of peptide-pulsed (CFSE+) targets is calculated relative to that of the control population (CTO+), and cytotoxic activity is expressed as percent specific lysis (100−mean percent survival of peptide-pulsed targets).

Data set [3] has as its system SIINFEKL-specific T cells. Kind of data set: Peptide-specific T cell proliferation in vivo (OT-1 transfer). Also noted: species or system C57BL/6 mice. As to conditions: intravenous vaccination one day after transfer of 10,000 OT-1 cells, equivalent molar dose of SIINFEKL, blood after seven days, FIG. 2. Here is the method: The compounds are injected to give the equivalent molar dose of SIINFEKL (SEQ ID NO: 262) peptide in each case. To increase sensitivity of the assay, all mice are initially donated a cohort of 10,000 SIINFEKL-specific T cells from a transgenic mouse encoding a T cell receptor for this antigen (OT-1 mice) by intravenous injection of the cells one day before the vaccines are administered. […] It is therefore possible to enumerate SIINFEKL-specific T cells in blood by flow cytometry using antibodies for CD45.1 together with antibodies for the transgenic T cell receptor (Vα2). Control animals (naïve) are injected with the diluent phosphate-buffered saline (PBS). […] Each dot represents a different animal; mean per treatment group±SEM are presented. *P<0.05, *P<0.01, ***P<0.001
Pooled lymph node cell suspensions are prepared from animals of a cross between OT-1 mice, which express a transgenic T cell receptor (TCR) specific for the ovalbumin epitope SIINFEKL (SEQ ID NO: 262)-in the context of H-2K^b molecules, and B6.SJL-Ptprc^a Pepc^b/BoyJ mice, which are congenic with C57BL/6 mice for the CD45.1^+ marker. The samples are enriched for CD8^+ cells using antibody coated magnetic beads (Miltenyi), and then transferred into C57BL/6 mice (1×10^4 per mouse). Groups of recipient animals (n=5) are immunized with compounds of the invention one day later. […]

The test system of data set [4] is NKT cell activity (CD86 on B cells in the peripheral blood). Kind of data set: CD86 expression on peripheral blood B cells as readout of NKT cell activity. The note with it: 0.23 nmol intravenously, blood collected 20 h later, n=3, FIG. 1. Type of data set: in vivo, C57BL/6 mice. On the procedure: Groups of C57BL/6 mice (n=3) are injected intravenously with 0.23 nmol of the indicated glycolipid compounds and then the blood samples collected 20 h later for the analysis of CD86 expression on CD45 (B220)+B cells by antibody labelling and flow cytometry. Mean fluorescence index (MFI)±SEM are presented, *P<0.05, *P<0.01, ***P<0.001.
Each compound of the invention is supplied as formulated product (see example 3), and diluted in phosphate-buffered saline (PBS) for injection (0.23 nmol/mouse) by intravenous injection into the lateral tail vein. In humans the expected therapeutic dose lies in the 50-4800 (μg/m^2) range (Giaccone, Punt et al. 2002). Note, 0.23 nmol in a mouse is a human equivalent dose of 30 μg/m^2 for α-GalCer.
All antibody labelling is performed on ice in FACS buffer (PBS supplemented with 1% FCS, 0.05% sodium azide, and 2 mM EDTA). Non-specific FcR-mediated antibody staining is blocked by incubation for 10 min with anti-CD16/32 Ab (24G2, prepared in-house from hybridoma supernatant). Flow cytometry is performed on a BD Biosciences FACSCalibur or BD LSRII SORP flow cytometer with data analysis using FlowJo software (Tree Star, Inc., OR, USA).
Antibody staining and flow cytometry are used to examine the expression of the maturation markers CD86 on peripheral blood B cells following injection of compounds of the invention. […]

Data set [5] concerns CD11c+ dendritic cells. The data set is described as follows: CD86 expression on splenic dendritic cells. Type of data set: in vivo, C57BL/6 mice. As to conditions: 0.571 nmol intravenously, spleens removed 20 h later, n=3, FIG. 3. On the procedure: Groups of C57BL/6 mice (n=3) are injected intravenously with 0.571 nmol of the indicated compounds and then the spleens removed 20 h later for the analysis of CD86 expression on CD11c^+ dendritic cells by antibody labelling and flow cytometry. Mean fluorescence index (MFI)±SEM are presented. *P<0.05, *P<0.01, ***P<0.001
Antibody staining and flow cytometry is used to examine the expression of maturation markers on dendritic cells in the spleen following injection of compounds of the invention (0.23 nmol). Splenocyte preparations are prepared by gentle teasing of splenic tissue through gauze in Iscove's Modified Dulbecco's Medium with 2 mM glutamine, 1% penicillin-streptomycin, 5×10^-5 M 2-mercapto-ethanol and 5% fetal bovine serum (all Invitrogen, Auckland, New Zealand), followed by lysis of red blood cells with RBC lysis buffer (Puregene, Gentra Systems, Minneapolis, Minn., USA). Antibody staining is performed in PBS 2% fetal bovine serum and 0.01% sodium azide. The anti-FcgRII monoclonal antibody 2.4G2 is used at […] to inhibit non-specific staining. Monoclonal antibodies (all BD Biosciences Pharmingen, San Jose, Calif., USA) are used to examine expression of the maturation markers CD40, CD80 and CD86 on CD11c+ dendritic cells.

For data set [6] the following is noted: Ebensen, Link et al. 2007; cited from earlier work.
Data set [7] concerns human NKT cells. The note with it: Kawano, Cui et al. 1997; cited from earlier work.
The subject of data set [8] is mouse NKT cells. The note with it: Kawano, Cui et al. 1997; cited from earlier work.

For “(2S,3S,4R)-1-(6-Deoxy-6-(4-β-(FFRKSIINFEKL)-3-oxopropyl)-1H-1,2,3-triazol-1-yl)hexanoyl)-(N-Val-Cit-4-aminobenzyloxycarbonylamino)-1-(α-D-galactopyranosyloxy))-2-hexacosanoylamino-3,4-octadecandiol [CI-017]”, the “Anti-tumour activity (mean tumour size)” value in data set [1] is “superior anti-tumour activity”. For the same compound, the “SIINFEKL-specific cytotoxicity (percentage of peptide-loaded targets killed relative to control cells)” value in data set [2] was “greater SIINFEKL (SEQ ID NO: 262)-specific cytotoxicity”.

On to `CCCCCCCCCCCCCCCCCCCCCCCCCC(=O)N[C@@H](CO[C@H]1OC(CNC(=O)OCOC(=O)CC/C(C)=N/OCC(=O)N[C@@H](Cc2ccccc2)C(=O)NC(Cc2ccccc2)C(=O)N[C@@H](CCCNC(=N)N)C(=O)N[C@@H](CCCCN)C(=O)N[C@@H](CO)C(=O)N[C@H](C(=O)N[C@H](C(=O)N[C@@H](CC(N)=O)C(=O)N[C@@H](Cc2ccccc2)C(=O)N[C@@H](CCC(=O)O)C(=O)N[C@@H](CCCCN)C(=O)N[C@@H](CC(C)C)C(=O)O)[C@@H](C)CC)[C@@H](C)CC)[C@H](O)[C@H](O)C1O)[C@H](O)[C@H](O)CCCCCCCCCCCCCC` (stereo partly drawn) [CN169, (2S,3S,4R)-1-(6-Deoxy-6-(4-((2-(FFRKSIINFEKL)-2-(oxo)ethoxyimino)pentanoyloxy)methoxycarbonylamino)-α-D-galactopyranosyloxy)-2-hexacosanoylamino-3,4-octadecandiol] (X1-F[ξF]RKSIINFEKL-OH), for which the “SIINFEKL-specific T cells (Vα2+ CD45.1+) in blood” value in data set [3] is reported as “increased antigen-specific T cell response; also recorded: larger population of peptide-specific T cells; also recorded: larger population of SIINFEKL-specific T cells”. In data set [4], the “CD86 expression on CD45 (B220)+ B cells in peripheral blood (mean fluorescence index)” value is recorded as “potently activate B cells”.

With `CCCCCCCCCCCCCCCCCCCCCCCCCC(=O)N[C@@H](CO[C@H]1OC(CN)[C@H](O)C(O)C1O)[C@H](O)[C@H](O)CCCCCCCCCCCCCC` (some centres unmarked) [CN168], the “CD86 expression on CD11c+ dendritic cells in spleen (mean fluorescence index)” value in data set [5] is recorded as “potently activated dendritic cells”.

On to `CCCCCCCCCCCCCCCCCCCCCCCCCC(=O)N[C@@H](CO[C@H]1O[C@H](CO)[C@H](O)[C@H](O)[C@H]1O)[C@H](O)[C@H](O)CCCCCCCCCCCCCC` [α-GalCer, α-Galactosylceramide], for which the Solubility entry in data set [6] was “poor solubility”. In addition, the “Activation of human NKT cells” value in data set [7] was “potently activates”. The “Activation of mouse NKT cells” value in data set [8] is recorded as “potently activates”.
